The values that follow come from PubChem BioAssay AID588540 (NMMLSC, 2011).

Active and inactive are the calls of the source.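 The calls were made as follows: active = viability below 80%, treated as toxic; inactive = the rest.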

This assay deals with HEK-293 viability, CellTiter-Glo, 3 days. Put plainly: viability loss in HEK-293 cells – cell-based, powder set 1, set 2, cytotoxicity control for GRK2 aptamer-displacement inhibitor project, late-stage follow-up (AID 588540). Particulars: at 20 µM; hits give low values.
For `NS(=O)(=O)c1ccc(CCNC(=O)CCS(=O)(=O)c2ccc(Br)cc2)cc1`, the viability – broadly, a read-out of living cells in per cent, often relative to untreated cells – was 124% (inactive). For `CC(CS(=O)(=O)c1ccc2c(c1)NC(=O)CS2)C(=O)NCc1ccccc1Cl` (stereo not drawn) the value was 119% (inactive). For the compound `Cc1cc2ccccc2n1CCNC(=O)C(C)Oc1ccccc1` (stereo not drawn), the viability is 68.6%. To `COc1ccc([N+](=O)[O-])cc1NC(=O)CCS(=O)(=O)c1ccc(Br)cc1` belongs 118% (inactive); to `O=C(CN1CCc2ccccc21)NC(=O)NCc1ccccc1`, 56.1%; to `O=C(CCS(=O)(=O)c1ccc(Br)s1)Nc1ccccc1Br`, 71.3%. To `Cc1ccc(CCNC(=O)CCS(=O)(=O)c2ccc(Br)cc2)cc1` belongs 126% (inactive); to `CCOc1ccc(NC(=O)CCS(=O)(=O)c2ccc(Br)cc2)cc1`, 108% (inactive).

Take `Cc1ccccc1NC(=O)CCS(=O)(=O)c1ccc(Br)s1`: the viability is 94.2% (inactive). To `COc1ccc(NC(=O)CCS(=O)(=O)c2ccc(Br)s2)cc1` belongs 86.8% (inactive); to `COC(=O)c1ccccc1NC(=O)CCS(=O)(=O)c1ccc(Br)s1`, 81.6% (inactive); to `COc1ccc(CCNC(=O)CCS(=O)(=O)c2ccc(Br)cc2)cc1OC`, 120% (inactive). For `COc1ccc(Cl)cc1NC(=O)CCS(=O)(=O)c1ccc(Br)cc1` the value was 106% (inactive); for `O=C(CSc1nc2ccccc2c(=O)n1-c1ccccc1)NC(=O)CN1CCCC1=O`, 116% (inactive). On to `COC(=O)c1ccc(NC(=O)CCS(=O)(=O)c2ccc(Br)cc2)cc1`, for which the viability was 126% (inactive). `CC(=O)N1CCN(Cc2nc3cc(Cl)ccc3c(=O)[nH]2)CC1`: the viability is 124% (inactive). To `CCOc1ccccc1NC(=O)CCS(=O)(=O)c1ccc(Br)cc1` belongs 79.5% (inactive); to `O=C(CCS(=O)(=O)c1ccc(Br)cc1)Nc1ccc(Br)cc1F`, 116% (inactive). To `O=C(O)Cc1ccc(-n2cccc2)cc1` belongs 125% (inactive); to `C#CCSc1nc2sc3c(c2c(=O)n1C)CCC3`, 92.8% (inactive); to `CCN(CC)c1ccc(NC(=O)CCS(=O)(=O)c2ccc(Br)cc2)c(C)c1`, 97.3% (inactive). For `O=C(CCS(=O)(=O)c1ccc(Br)cc1)NCc1cccs1` the value was 131% (inactive); for `Cc1cccc(CCNC(=O)CCS(=O)(=O)c2ccc(Br)cc2)c1`, 129% (inactive).
